Reference: ChEMBL document CHEMBL1135405, “Solid-phase library synthesis, screening, and selection of tight-binding reduced peptide bond inhibitors of a recombinant Leishmania mexicana cysteine protease B” (J Med Chem, 2002)
Square brackets hold non-standard residues; d marks the D form. Peptide text beside a SMILES is read from it. Phe(4-NO2) = N[C@@H](Cc1ccc([N+](=O)[O-])cc1)C(=O)O; 2Abz = Nc1ccccc1C(=O)O

B1: Human rhinovirus A protease (Human rhinovirus sp.), Q4U254 (protein)
chain: AFRPCNVNTKIGNAKCCPFVCGKAVTFKDRSTCSTYNLSSSLHHILEEDKRRRQVVDVMSAIFQGPISLDAPPPPAIADLLQSVRTPRVIKYCQIIMGHPAECQVERDLNIANSIIAIIANIISIAGIIFVIYKLFCSLQGPYSGEPKPKTKVPERRVVAQGPEEEFGRSILKNNTCVITTGNGKFTGLGIHDRILIIPTHADPGREVQVNGVHTKVLDSYDLYNRDGVKLEITVIQLDRNEKFRDIRKYIPETEDDYPECNLALSANQDEPTIIKVGDVVSYGNILLSGNQTARMLKYNYPTKSGYCGGVLYKIGQILGIHVGGNGRDGFSAMLLRSYFTGQIKVNKHATECGLPDIQTIHTPSKTKLQPSVFYDVFPGSKEPAVLTDNDPRLEVNFKEA

Assays:
[1] = system: Cysteine protease B (Leishmania mexicana); assay: Inhibitory potency against Cysteine protease B, expressed as kinetic constant (kcat/Km)
[2] = compound: C[C@@H](O)[C@H](NC(=O)[C@H](CCCN=C(N)N)NC(=O)[C@H](Cc1ccccc1)NC(=O)[C@H](CCCN=C(N)N)NC(=O)[C@@H]1CCCN1C(=O)[C@@H](N)Cc1ccc([N+](=O)[O-])cc1)C(=O)NCC(=O)N[C@@H](CO)C(=O)N[C@@H](CCCCNC(=O)c1ccccc1N)C(=O)NCC(=O)O; assay: Inhibitory potency against Cysteine protease B, expressed as kinetic constant (Km); conditions: Leishmania mexicana

Molecule | k cat/Km [1] | Km [2]
C[C@@H](O)[C@H](NC(=O)[C@H](CCCN=C(N)N)NC(=O)[C@H](Cc1ccccc1)NC(=O)[C@H](CCCN=C(N)N)NC(=O)[C@@H]1CCCN1C(=O)[C@@H](N)Cc1ccc([N+](=O)[O-])cc1)C(=O)NCC(=O)N[C@@H](CO)C(=O)N[C@@H](CCCCNC(=O)c1ccccc1N)C(=O)NCC(=O)O (H-[Phe(4-NO2)]PRFRTGSK(2Abz)G-OH) | 1300 mM/s | –
B1 | – | 1.13 µM
